Test results published in patent US4894219A, “Beta-agonist carbostyril derivatives, assay method and pharmacological composition” (University of Florida, priority 1988, dated 1990).
Where two headings read alike, the source gives them in different places.

How the values were obtained:
beta-2 = details: Yoshizaki et al, J. Med. Chem. 1977; cited from earlier work
adenylate cyclase [1] = assay: Stimulation of adenylate cyclase activity in rat reticulocyte membranes; format: biochemical; details: for Intrinsic Activity, adenylate cyclase: as compared to (-)isoproterenol which was set to 1.0, 10 min; for intrinsic activity (efficacy) in words: compared with (-)isoproterenol; for EC50: rat reticulocyte membranes, mean ±SE, n = 3-6, read-out: EC50 (concentration that produced half-maximal enzyme activation), adenylate cyclase
Method: Biochemical Methods. Adenylate Cyclase Activity. Rat reticulocytes were induced and membranes prepared as described by Baker et al, J. Biol. Chem., Vol. 260, p. […] These are the basal conditions. […] At the end of the incubation, 0.3 ml of 10 mM Tris.HCl buffer at pH 7.0 containing 5 mM EDTA was added to each tube and the tubes were placed in a boiling water bath for 5 min. After cooling to room temperature, the tubes were centrifuged for 5 min at 10000 g and the supernatant saved. The cAMP content of the supernatant was determined by a competitive protein binding assay. The amount of cAMP present was calculated from a standard curve determined with unlabeled cAMP. […] Basal and GTP-stimulated activity values were substracted from the values obtained in the presence of ligands and the concentration of ligands that produced half-maximal activity (EC50) were determined by using a dose-effect analysis with an Apple IIe computer. Membrane protein content was determined by the Lowry method with bovine serum albumin as standard.

beta-adrenergic receptor [2] = biological target: T1, beta-adrenergic receptor (Rattus norvegicus, UniProt P10608); assay: [^125 I]iodocyanopindolol (CYP) competition binding to the beta-adrenergic receptor in rat reticulocyte membranes
Method: β-Adrenergic Receptor Binding. […] At the end of the incubation, the suspensions were diluted with 4 ml of ice-cold incubation buffer and poured onto Whatman GF/B glass fiber filters under reduced pressure. Each filter was washed with a further 8 ml of ice-cold buffer, placed in a scintillation vial, and counted. Specific binding to the receptor was calculated as the difference between total binding determined in the absence of alprenolol and the nonspecific binding determined in the presence of alprenolol. […] All data was statistically analyzed by using a one-way analysis of variance (ANOVA).

beta-adrenergic receptor [3] = biological target: T1, beta-adrenergic receptor; assay: Washout experiment: irreversible binding after membrane pretreatment with compound 13; design: membranes prepared from rat reticulocytes; from tissue; host or cells: rat reticulocytes (blood cells), membranes; endogenous receptor
Method: In the pretreatment experiments, reticulocyte membrane protein (3 mg/ml) was incubated in 50 mM Tris·HCl buffer at pH 7.4, containing 5 mM MgCl2 without and with 20 nM compound 13 for 30 min at 32° C. A parallel incubation was also performed containing 20 nM compound 13 plus 10 μM nadolol. At the end of the incubation the tubes were filled (30 ml) with ice-cold incubation buffer and centrifuged at 48000 g for 15 min. The pellets were washed three more times by centrifugation and resuspension and the final pellets were resuspended in 1 ml of incubation buffer for assay. The membrane content of β-adrenergic receptors was determined with (-)-^125 I]-iodocyanopindolol (10-100 pM) as described above. The binding maximums and dissociation constants (KD) were determined from linear regression analysis of Scatchard plots.
Irreversible binding of compound (13) to the reticulocyte β-adrenergicreceptor was indicated by washout experiments.

adenylate cyclase [4] = assay: Time course of cAMP production in rat reticulocytes with propranolol addition (FIG. 3); format: biochemical; details: for irreversible binding and response at the beta-adrenergic receptor: conclusion from FIG. 3 and binding data; for cAMP production after propranolol added during incubation: propranolol added after 9 min ((-)isoproterenol) or 7 min (structure 13); for cAMP production, linearity with time: without propranolol
Method: Biochemical Methods. Adenylate Cyclase Activity. Rat reticulocytes were induced and membranes prepared as described by Baker et al, J. Biol. Chem., Vol. 260, p. 15820 (1985). […] These are the basal conditions. When stimulation of activity was measured, the assay also contained 0.5 mM GTP and varying concentrations of (-)-isoproterenol or the carbostyril derivatives. At the end of the incubation, 0.3 ml of 10 mM Tris.HCl buffer at pH 7.0 containing 5 mM EDTA was added to each tube and the tubes were placed in a boiling water bath for 5 min. After cooling to room temperature, the tubes were centrifuged for 5 min at 10000 g and the supernatant saved. The cAMP content of the supernatant was determined by a competitive protein binding assay. The amount of cAMP present was calculated from a standard curve determined with unlabeled cAMP. Enzyme activity was linear with time and protein through 10 min and 0.1 mg, respectively. Basal and GTP-stimulated activity values were substracted from the values obtained in the presence of ligands and the concentration of ligands that produced half-maximal activity (EC50) were determined by using a dose-effect analysis with an Apple IIe computer. Membrane protein content was determined by the Lowry method with bovine serum albumin as standard.

[5] = tested on: beta-adrenergic receptors; assay: Loss of beta-adrenergic receptors in rat tissues after i.p. injection; format: in vivo; details: for Specific Ligand Binding / % reduction of receptors from controls: 3 hr; for beta-2-receptor selectivity in vivo: receptor loss in rat tissues
Method: Rats were injected i.p. with either 2 or 5 mg/kg of structure (13) and 3 hr. later, the tissues were removed and assayed for the beta-adrenergic receptor content.

ornithine decarboxylase = assay: Induction of ornithine decarboxylase activity in the rat lung; format: in vivo; details: for Fold increase of ornithine decarboxylase activity over the basal level / Ornithine decarboxylase activity: rat lung
[6] = listed as structure wherein X is NHCOCH2 Br
[7] = 0.1 mg/kg i.p., 3 hours, basal 1.9 + 0.4
[8] = 0.1 mg/kg plus propranolol (5 mg/kg, 30 min before)

T1 sequence (P10608 whole entry): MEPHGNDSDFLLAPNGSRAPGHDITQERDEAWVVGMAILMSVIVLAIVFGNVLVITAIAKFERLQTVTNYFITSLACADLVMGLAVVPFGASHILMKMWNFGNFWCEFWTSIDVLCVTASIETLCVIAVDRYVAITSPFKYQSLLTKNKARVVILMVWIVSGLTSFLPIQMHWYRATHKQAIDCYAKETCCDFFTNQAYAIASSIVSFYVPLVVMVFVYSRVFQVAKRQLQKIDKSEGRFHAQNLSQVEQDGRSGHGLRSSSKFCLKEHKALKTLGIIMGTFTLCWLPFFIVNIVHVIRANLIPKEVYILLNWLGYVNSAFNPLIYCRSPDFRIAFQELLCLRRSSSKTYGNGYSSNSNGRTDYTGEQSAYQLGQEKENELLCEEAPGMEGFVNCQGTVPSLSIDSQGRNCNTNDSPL

CC[C@H](NC(C)C)[C@H](O)c1ccc(O)c2[nH]c(=O)ccc12 (relative stereo) [procaterol, erythro-5-(1-hydroxy-2-isopropylaminobutyl)-8-hydroxycarbostyril]
beta-2 agonist and bronchodilator activity in words (beta-2): potent beta-2 agonist and a bronchodilator

CC(C)(Cc1ccc(I)cc1)NCC(O)c1ccc(O)c2[nH]c(=O)ccc12 (stereo not drawn) [Compound 11, 5-[2-[[1-(4-Iodophenyl)-2-methylprop-2-yl]amino]-1-hydroxyethyl]-8-hydroxycarbostyril]
Intrinsic Activity, adenylate cyclase (adenylate cyclase [1]): 1.3
intrinsic activity (efficacy) in words (adenylate cyclase [1]): higher intrinsic activities than (-)isoproterenol
EC50 (adenylate cyclase [1]): 5.6 ± 1.4 nM
IC50 (beta-adrenergic receptor [2]): 7.6 ± 1.3 nM

CC(C)(Cc1ccc(N)cc1)NCC(O)c1ccc(O)c2[nH]c(=O)ccc12 (stereo not drawn) [Compound 12]
Intrinsic Activity, adenylate cyclase (adenylate cyclase [1]): 1.0
intrinsic activity (efficacy) in words (adenylate cyclase [1]): equal to the intrinsic activity (efficacy) of (-)isoproterenol
EC50 (adenylate cyclase [1]): 14.2 ± 4.7 nM
IC50 (beta-adrenergic receptor [2]): 22 ± 3 nM

CC(C)(Cc1ccc(NC(=O)CBr)cc1)NCC(O)c1ccc(O)c2nc(O)ccc12 (stereo not drawn) [Compound 13]
Intrinsic Activity, adenylate cyclase (adenylate cyclase [1]): 1.2
intrinsic activity (efficacy) in words (adenylate cyclase [1]): higher intrinsic activities than (-)isoproterenol
EC50 (adenylate cyclase [1]): 8.5 ± 3.5 nM
receptor concentration after pretreatment and washout (beta-adrenergic receptor [3]; 20 nM compound 13, four wash cycles, control 576±22, mean ±SD, n=3): 168±15 fmol/mg of protein
inhibition at 0.02 µM (beta-adrenergic receptor [3]; 0.5 h, 20 nM compound 13, four wash cycles, read-out: decrease in the receptor concentration after pretreatment and washout): 71%
Kd (beta-adrenergic receptor [3]; compound 13 treated membranes (20 nM), control 13±3, read-out: KD value for (-)-[^125 I]iodocyanopindolol binding to the remaining receptors): 0.011 ± 0.002 nM
IC50 (beta-adrenergic receptor [2]): 5.3 ± 0.8 nM
irreversible binding and response at the beta-adrenergic receptor (adenylate cyclase [4]): irreversibly binds to the beta-adrenergic receptor and produces an irreversible response
irreversible binding and response at the beta-adrenergic receptor (adenylate cyclase [4]; [6]): appears to bind irreversibly to the receptor and produce irreversible agonist effects
cAMP production after propranolol added during incubation (adenylate cyclase [4]): no change in the rate of cAMP production occurred
cAMP production with propranolol added at time 0 (adenylate cyclase [4]; propranolol added with structure 13 at time 0): stimulation of cAMP production was blocked
cAMP production, linearity with time (adenylate cyclase [4]): linear through 14 min
loss of receptors in words ([5]; cerebral cortex, 5 mg/kg): no significant loss of receptors
Specific Ligand Binding ([5]; cerebral cortex, 5 mg/kg i.p., control 119 ± 10): 114 ± 14 fmol/mg protein
loss of receptors in words ([5]; heart or submaxillary gland, 5 mg/kg vs 2 mg/kg): no further loss of receptors was detected
% reduction of receptors from controls ([5]; heart, 2 mg/kg i.p.): 23%
Specific Ligand Binding ([5]; heart, 2 mg/kg i.p., control 22.3 ± 1.0): 17.1 ± 0.5 fmol/mg protein
% reduction of receptors from controls ([5]; heart, 5 mg/kg i.p.): 15%
Specific Ligand Binding ([5]; heart, 5 mg/kg i.p., control 22.3 ± 1.0): 18.9 ± 0.8 fmol/mg protein
blood brain barrier penetration ([5]; inferred from lack of receptor loss in cerebral cortex): cannot cross the blood brain barrier
% reduction of receptors from controls ([5]; lung, 2 mg/kg i.p.): 52%
Specific Ligand Binding ([5]; lung, 2 mg/kg i.p., control 658 ± 27): 318 ± 23 fmol/mg protein
% reduction of receptors from controls ([5]; lung, 5 mg/kg i.p.): 75%
Specific Ligand Binding ([5]; lung, 5 mg/kg i.p., control 658 ± 27): 166 ± 9 fmol/mg protein
beta-2-receptor selectivity in vivo [5]: receptor reductions were mainly due to losses of beta-2 receptors
beta-2-receptor selectivity in vivo [5, 6]: high degree of beta-2-receptor selectivity in vivo
% reduction of receptors from controls ([5]; spleen, 2 mg/kg i.p.): 42%
Specific Ligand Binding ([5]; spleen, 2 mg/kg i.p., control 53.2 ± 1.8): 31 ± 4 fmol/mg protein
% reduction of receptors from controls ([5]; spleen, 5 mg/kg i.p.): 65%
Specific Ligand Binding ([5]; spleen, 5 mg/kg i.p., control 53.2 ± 1.8): 19 ± 1.2 fmol/mg protein
% reduction of receptors from controls ([5]; submaxillary gland, 2 mg/kg i.p.): 23%
Specific Ligand Binding ([5]; submaxillary gland, 2 mg/kg i.p., control 98 ± 5.8): 75 ± 3 fmol/mg protein
% reduction of receptors from controls ([5]; submaxillary gland, 5 mg/kg i.p.): 21%
Specific Ligand Binding ([5]; submaxillary gland, 5 mg/kg i.p., control 98 ± 5.8): 77 ± 3.7 fmol/mg protein
Fold increase of ornithine decarboxylase activity over the basal level (ornithine decarboxylase; 0.1 mg/kg i.p., 3 hours): 4.6 fold
Ornithine decarboxylase activity (ornithine decarboxylase; [7]): 8.7 + 0.5 nmol CO2 Formed/g tissue/hr
Ornithine decarboxylase activity (ornithine decarboxylase; [8]): 0.4 ± 0.06 nmol CO2 Formed/g tissue/hr

CC(C)(C)NCC(O)COc1cccc2c1CC(O)C(O)C2 (stereo not drawn) [nadolol, reference compound]
prevention of loss of specific binding sites by nadolol (beta-adrenergic receptor [3]; nadolol 10 μM in preincubation with compound 13): the loss of specific binding sites was completely prevented

CC(C)NCC(O)COc1cccc2ccccc12 (stereo not drawn) [propranolol]
blocking of ornithine decarboxylase induction (ornithine decarboxylase; propranolol 5 mg/kg 30 min before (-)isoproterenol or compound 13): completely blocked

(-)isoproterenol [reference compound]
Intrinsic Activity, adenylate cyclase (adenylate cyclase [1]): 1.0
EC50 (adenylate cyclase [1]): 226 ± 1.4 nM
IC50 (beta-adrenergic receptor [2]; read-out: IC50 (concentration that inhibited CYP binding by 50%), rat reticulocyte membranes, mean ±SE, n = 3-6, 60 min): 327 ± 17 nM
cAMP production after propranolol added during incubation (adenylate cyclase [4]): no further cAMP was produced
cAMP production, linearity with time (adenylate cyclase [4]): linear through 14 min
Fold increase of ornithine decarboxylase activity over the basal level (ornithine decarboxylase; 0.1 mg/kg i.p., 3 hours): 6.5 fold
Ornithine decarboxylase activity (ornithine decarboxylase; [7]): 11.8 + 1.7 nmol CO2 Formed/g tissue/hr
Fold increase of ornithine decarboxylase activity over the basal level (ornithine decarboxylase; 0.1 mg/kg i.p., 3 hours, listed as (-)Isoproterenol): 6.2 fold
Ornithine decarboxylase activity (ornithine decarboxylase; [8]): 0.4 ± 0.09 nmol CO2 Formed/g tissue/hr
